Experimental data reported in patent US20200405867A1, “ORAL DOSAGE FORMS” (Sunovion Pharmaceuticals Inc., priority 2018, published 2020).
Where a name gives a salt, the structure may show the parent alone. Read-outs that look alike come from different tables or passages of the source.

Experiments:
[1] = capsule, doses of 1 to 8 mg, adult or adolescent; cited from earlier work
[2] = type: physicochemical; settings: for impurities: four weeks
Source text: A solution must be stable for commercially reasonable periods. […] In experimenting with buffering agents such as tartrate and citrate, precipitation of dasotraline HCl was discovered.

[3] = type: physicochemical
Source text: In addition to chemical/physical stability, the formulation must remain free of microbial growth for commercially reasonable periods. Several common preservatives failed when combined with dasotraline HCl and malate buffer.

physchem = type: physicochemical
Source text: To make a solution, one must attain sufficient solubility to achieve efficacious levels of an active pharmaceutical ingredient (API) while avoiding precipitation.

SMILES | abuse liability [1] | efficacy in treating ADHD [1] | impurities ([2]; 10 mM malate buffer, pH≤3.5, 60° C.) | impurities ([2]; higher (25 mM) malate buffer amount, pH>3, 60° C.) | physical stability of solution ([2]; pH 3) | physical stability of solution ([2]; pH 3.5) | physical stability of solution ([2]; pH 5) | physical stability of solution [3] | stability of solution [3] | stability of solution ([3]; 4 weeks) | impurities ([3]; malate buffer, 5% propylene glycol, further stress beyond four weeks at 60° C.) | pH window of maximal solubility in water (physchem) | solubility (physchem; pH 2.2, aqueous buffer) | solubility (physchem; pH 2.7, aqueous buffer) | solubility (physchem; pH 3, aqueous buffer) | solubility (physchem; pH 3.4, aqueous buffer) | solubility (physchem; pH 3.9, aqueous buffer) | solubility (physchem; pH 4.4, aqueous buffer) | solubility (physchem; pH 4.9, aqueous buffer)
N[C@@H]1CC[C@@H](c2ccc(Cl)c(Cl)c2)c2ccccc21 [dasotraline, (1R,4S)-4-(3,4-dichlorophenyl)-1,2,3,4-tetrahydronaphthalen-1-amine] | no detectable abuse liability | effective in treating ADHD |  |  |  |  |  |  |  |  |  |  |  |  |  |  |  |  | 
N[C@@H]1CC[C@@H](c2ccc(Cl)c(Cl)c2)c2ccccc21 [dasotraline HCl] |  |  | no detectable impurities | > 0.1% | precipitation | precipitation | precipitation | induced precipitation | stable solution under all conditions tested | effective up to four weeks at 60 °C | > 0.1% | 2.0-3.0 pH | 1900 µg/mL | 2200 µg/mL | 2100 µg/mL | 1300 µg/mL | 800 µg/mL | 600 µg/mL | 400 µg/mL
